Data set [1] relates to Human immunodeficiency virus 1. Kind of data set: Antiviral activity against HIV1 NL4-3 in human PBMC. It counts as functional, organism-based. To be noted: Human immunodeficiency virus 1, NL4.3.
Data set [2] addresses Human immunodeficiency virus type 1 reverse transcriptase (Human immunodeficiency virus 1, UniProt Q72547). The data set can be described thus: Inhibition of HIV1 reverse transcriptase.
The target of data set [3] is Human immunodeficiency virus type 1 integrase (Human immunodeficiency virus 1, UniProt Q7ZJM1). The data set can be described thus: Inhibition of HIV1 integrase expressed in Escherichia coli BL21 (DE3).
Data set [4] in a line: Cytotoxicity against human PBMC. Type of data set: cell-based. To be noted: PBMC (peripheral blood mononuclear cells).
Data set [5] can be described thus: Theraputc index, ratio of CC50 of PBMC cells to EC50 of HIV1 NL4-3. Type of data set: ADME, cell-based. The following applies: read-out: Ratio CC50/EC50.
Data set [6] deals with Human immunodeficiency virus 1. The data set can be described thus: Antiviral activity against HIV1 3B in CEM-SS cells by cytoprotection assay. Also on record: concentration or dose not given beside the values. It counts as functional.
Data set [7] can be described thus: Cytotoxicity against CEM-SS cells assessed as cell viability. To be noted: human, read-out: Activity. It counts as cell-based.

The structures appear in SMILES notation.

Experimental findings from ChEMBL document CHEMBL1146235, “Rationally designed dual inhibitors of HIV reverse transcriptase and integrase” (J Med Chem, 2007) are described below.

By EC50 is commonly meant the midpoint of the concentration-response curve. A word on the IC50: it is the concentration that gives 50% inhibition. As usually defined, the CC50 is the concentration that lowers cell viability or growth by half.

Sequence of Human immunodeficiency virus type 1 integrase (Q7ZJM1 whole entry): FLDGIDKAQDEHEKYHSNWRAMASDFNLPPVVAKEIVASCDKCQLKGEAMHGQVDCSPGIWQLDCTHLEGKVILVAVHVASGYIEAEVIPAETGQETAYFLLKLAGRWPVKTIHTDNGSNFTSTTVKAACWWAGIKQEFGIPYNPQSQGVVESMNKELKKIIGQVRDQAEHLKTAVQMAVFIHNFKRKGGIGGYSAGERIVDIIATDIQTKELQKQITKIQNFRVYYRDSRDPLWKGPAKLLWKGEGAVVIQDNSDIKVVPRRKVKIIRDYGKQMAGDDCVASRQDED

In data set [1], `CC(C)c1c(Cc2ccccc2)n(COCc2ccccc2)c(=O)[nH]c1=O` returned a half-maximal effective concentration (EC50) of 0.016 µM. Besides, the half-inhibitory concentration (IC50) in data set [2] is 0.016 µM; in data set [3], > 100 µM. Besides, the half-maximal cytotoxic concentration (CC50) in data set [4] was > 10 µM. Besides, the selectivity ratio in data set [5] was > 160.

As for `O=[N+]([O-])c1ccc(C2c3c(O)nc(S)nc3Oc3nc(S)nc(O)c32)cc1`, the 50% inhibitory concentration (IC50) in data set [2] was 4.8 µM; in data set [3], 0.3 µM. In data set [4], this compound registered a cytotoxic concentration (CC50) of 120 µM. Moreover, in data set [5], the selectivity ratio was 14.

Consider `CCc1c(Cc2ccccc2)n(COCc2ccc(C(=O)/C=C(\O)C(=O)O)cc2)c(=O)[nH]c1=O`, for which the response in data set [1] was half-maximal at 0.052 µM (EC50). The values for the concentration for half-maximal inhibition (IC50) in data set [2] and in data set [3] were 0.235 µM and 1.82 µM, respectively. For the same compound, in data set [4], the CC50 was > 10 µM. The selectivity ratio in data set [5] was > 190. Moreover, the Activity in data set [6] is given as 95.2%. For the same compound, the viability in data set [7] was found to be 91%.

`CCc1c(Cc2cc(C)cc(C)c2)n(COCc2ccc(C(=O)/C=C(\O)C(=O)O)cc2)c(=O)[nH]c1=O` registered a 50% effective concentration (EC50) in data set [1] of 0.0097 µM. Moreover, the IC50 was 0.0242 µM in data set [2] and 4.44 µM in data set [3]. Further, the CC50 in data set [4] is > 10 µM. For the same compound, the selectivity ratio in data set [5] was > 1000. In data set [6], this compound came in with an Activity of 100%. Besides, the viability in data set [7] was determined as 100%.

`O=C(Nc1ccc2c(O)c(/N=N/c3ccc(C(=O)O)cc3)c(S(=O)(=O)O)cc2c1)Nc1ccc2c(O)c(/N=N/c3ccc(C(=O)O)cc3)c(S(=O)(=O)O)cc2c1`: the half-maximal inhibitory concentration (IC50) in data set [2] is 0.39 µM; in data set [3], 0.7 µM.

Consider `Cc1cc(C)cc(Cc2c(C(C)C)c(=O)[nH]c(=O)n2COCc2ccc(C(=O)/C=C(\O)C(=O)O)cc2)c1`, for which the EC50 in data set [1] is 0.017 µM. Further, the half-inhibitory concentration (IC50) worked out at 0.0092 µM in data set [2] and 7.67 µM in data set [3]. Moreover, the CC50 in data set [4] is > 10 µM. In addition, the selectivity ratio in data set [5] was > 600. Also, the Activity in data set [6] is 100%. In addition, in data set [7], the viability came to 100%.

On to `O=C(O)/C(O)=C/C(=O)c1cccc(Cc2ccccc2)c1`, for which the EC50 in data set [1] amounted to 0.16 µM. In addition, the half-inhibitory concentration (IC50) in data set [2] is > 100 µM. In addition, in data set [4], the CC50 was > 10 µM.

Consider `O=Cc1ccc(-c2cc(-c3cccc(C=O)c3)c(O)c(O)c(=O)c2O)cc1`, for which, in data set [1], a half-maximal response (EC50) required 3 µM. Further, the half-maximal inhibitory concentration (IC50) turned out to be 1.2 µM in data set [2] and 1.1 µM in data set [3]. The CC50 in data set [4] came to 6 µM. Further, in data set [5], the selectivity ratio is 2.

In turn, `CC(C)c1c(Cc2ccccc2)n(COCc2ccc(C(=O)/C=C(\O)C(=O)O)cc2)c(=O)[nH]c1=O` gave a half-maximal effective concentration (EC50) in data set [1] of 0.033 µM. Also, the figures for the IC50 in data set [2] and in data set [3] were 0.057 µM and 2.41 µM, respectively. In addition, the CC50 in data set [4] was > 10 µM. Moreover, the selectivity ratio in data set [5] is > 310. Moreover, the Activity in data set [6] came to 100%. Moreover, the viability in data set [7] was 90%.
